# Test results reported in patent publication US20230080477A1, “PROCESS OF SYNTHESIS OF NOVEL CHROMIUM (III) COMPLEXES OF SCHIFF BASE LIGANDS AND THEIR USE THERE OF AS THERAPEUTIC AGENTS” (priority 2021, published 2023).
# Tests used:
# [1] = Eastmond et al., 2008; Katz & salem, 1993; cited from earlier work
# [2] = DPPH free radical antioxidant activity assay; type: biochemical; settings: dilution 1 ml, wavelength 517 nm; for Inhibition: DPPH assay
# Method: Antioxidant activity of the synthesized Cr(III) Schiff base complexes was tested using the free radical compound 2,2-diphenyl-1-picrylhydrazyl(DPPH) (25,26). This compound has a violet color when dissolved in ethanol and a strong absorption maximum centered at around 515-520 nm. DPPH became colorless or pale yellow when neutralized. An aliquot of DPPH (0.3 ml) in ethanol ([…]) was added to ethanol(3 ml), followed by addition of Cr(III) complex dissolve in ethanol (0.5 ml)(total Volume 3.8 ml). A UV/visible spectrophotometer was used to monitor the color change at 517 nm after 100 minutes of reaction. A blank sample contained a mixture of the Cr(III) complex in ethanol (0.5 ml) and ethanol (3.3 ml) (Total Volume 3.8 ml) without any DPPH (no violet color). A control sample contained a solution of DPPH (0.3 ml) and ethanol (3.5 ml) (total volume 3.8 ml) without any Cr (III) complex (Violet color remains). The amount of scavenging activity (%) was determined by the method of Mensor et al. (27).
# Finally, the % scavenging activities for Schiff base ligands and derived Cr(III) complexes were calculated by applying the formula
# Scavenging activity=(Ac−At)/Ac×100%
# Where Ac and At represent the absorbance of the control and test samples, respectively (Choudhary et al., 2011)^28
Structure (SMILES),Acute toxicity range [1],Inhibition [2],DPPH Equivalent Antioxidant activity [2],Total Antioxidant activity [2]
[Cr+3] [Cr(III) ion],1.5 to 3.3 mg/kg,,,
Cc1ccc(NC(=O)CC(=O)NNc2cc[nH]c2)cc1 [Ligand 1],,0.077,1.253,65%
"CC/C=N\NC(=O)CC(=O)Nc1ccc(C)cc1 [Ligand 2, N-[4-methylphenyl)-3-oxo-3[(2Z)-2-propylidene hydrazinyl] propanamide]",,0.074,1.223,66%
